Reference: patent US6914160B1, “Oxytocin inhibitors” (Pfizer Inc, priority 2002, dated 2005)

Biological target: T1, Oxytocin Receptor (Homo sapiens, UniProt P30559)
T1 construct: expressed in transfected cells; host or cells: CHO cells (membrane preparation)
T1 sequence (P30559 1-389): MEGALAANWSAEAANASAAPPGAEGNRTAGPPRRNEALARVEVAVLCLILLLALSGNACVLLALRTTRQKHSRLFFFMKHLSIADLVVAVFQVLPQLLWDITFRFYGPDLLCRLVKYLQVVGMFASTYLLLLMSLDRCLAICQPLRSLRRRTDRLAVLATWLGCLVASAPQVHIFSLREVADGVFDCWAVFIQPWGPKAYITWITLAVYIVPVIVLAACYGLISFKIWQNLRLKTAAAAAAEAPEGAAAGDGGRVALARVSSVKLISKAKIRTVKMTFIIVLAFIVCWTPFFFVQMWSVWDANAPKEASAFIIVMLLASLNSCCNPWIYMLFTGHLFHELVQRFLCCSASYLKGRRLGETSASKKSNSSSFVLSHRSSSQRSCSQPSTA
Test: Oxytocin Receptor Ligand Binding IC50 Assay (125I-OVTA SPA, CHO cell membranes)
Experimental: A. Oxytocin Receptor Ligand Binding IC50 Assay
• ii) Compound Dilution (Final concentration of 10 μM in the assay) • a) HTA stock compounds at 4 mM in 100% DMSO • b) Dilute compounds to 200 μM in dH2O. • c) Further dilute compounds to 100 μM in 100 mM Tris-HCl, pH 7.8, 20 mM MgCl2. This gives final concentrations of 2.5% DMSO, 50 mM Tris-HCl, pH 7.8, 10 mM MgCl2. • d) Using the diluted stock, prepare 1:2 dilutions over 10 points in 50 mM Tris-HCl, pH 7.8, 10 mM MgCl2, 2.5% DMSO with the TECAN Genesis. • e) Dispense 10 μl of the compound into a 384 well Optiplate according to the plate layout required for analysis by ECADA leaving space for the standard (arg^8)-vasotocin IC50. […] Protein concentrations are then measured and the membrane suspension is finally frozen in aliquots at a minimum of 5 mg/ml at −80° C. vi) Assay • Membranes are thawed on ice before diluting to 1 mg/ml in assay buffer. […] A 5 μl sample is then counted in duplicate using liquid scintillation counting (protocol 61 on Wallac Counter) and the concentration of the ligand is calculated (see example below). […] Using the measured concentration, the ^125I-OVTA is diluted to 0.3 nM in assay buffer. […]

| SMILES | Ki [nM] |
| --- | --- |
| COc1cccc(C(C(N)=O)N(Cc2ccc(C)cc2)C(=O)c2c(C)cc(C)nc2N)c1 (single isomer, unassigned) [Example 258, (R or S)-2-Amino-N-[carbamoyl-[(3-methoxyphenyl)-methyl]-4,6-dimethyl-N-(4-methyl-benzyl)-nicotinamide] | 9.4 |
| Cc1ccc(CN(C(=O)c2c(C)cc(C)nc2N)C(C(N)=O)c2ccc3c(c2)OCCO3)cc1 (centres unmarked) [Example 257, 2-Amino-N-[carbamoyl-(2,3-dihydro-benzo[1.4]dioxin-6-yl)-methyl]-4,6-dimethyl-N-(4-methyl-benzyl)-nicotinamide] | 9.4 |
